Experimental data reported in patent US9012200B2, “Composition of bacterial strains, bioremediation mixture and use of this composition for the removal of contaminants from the soil and the method for purifying the soil contaminants” (priority 2012, dated 2015).
Read-outs that look alike come from different tables or passages of the source.

Assays:
[1] = tested on: investigated strains of bacteria; assay type: cell-based
[2] = tested on: model strain Escherichia coli; details: according to Spain, 2003; cited from earlier work
[3] = tested on: Achromobacter sp. strain 4P; assay type: cell-based
[4] = tested on: Brevundimonas sp. strain 5N; assay type: cell-based
[5] = tested on: Brevundimonas sp. strain 6N; assay type: cell-based
[6] = tested on: Pseudomonas sp. strain 4G; assay type: cell-based
[7] = tested on: Arthrobacter sp. strain 1N; assay type: cell-based
[8] = tested on: Stenotrophomonas sp. strain 3N; assay type: cell-based
[9] = tested on: Brevundimonas sp. strain 2N; assay type: cell-based
[10] = tested on: Stenotrophomonas sp. strain 5L; assay type: cell-based
[11] = tested on: Pseudomonas sp. strain 3G; assay type: cell-based
[12] = tested on: Stenotrophomonas sp. strain 6L; assay type: cell-based
[13] = tested on: Stenotrophomonas sp. strain 2L; assay type: cell-based

Row | Compound | Susceptibility of the investigated strains to the heavy metal [1] | MIC [2] [mM/L] | MIC threshold values of heavy metals [3] | MIC threshold values of heavy metals [4] | MIC threshold values of heavy metals [5] | MIC threshold values of heavy metals ([6]; 24 h) [mM/L] | MIC threshold values of heavy metals ([6]; 48 h) [mM/L] | MIC threshold values of heavy metals [7] | MIC threshold values of heavy metals [8] | MIC threshold values of heavy metals [9] | MIC threshold values of heavy metals [10] | MIC threshold values of heavy metals ([11]; 24 h) [mM/L] | MIC threshold values of heavy metals [12] | MIC threshold values of heavy metals [13] | other results
1 | [K+].[K+].[O]=[Cr](=[O])([O-])[O][Cr](=[O])(=[O])[O-] [Cr(VI), Potassium dichromate] | resistant | 0.2 | – | – | – | – | – | – | – | – | – | – | – | – | –
2 | Sodium arsenite [As (III)] | resistant | 0.5 | 5(6) mM/L | 4(7) mM/L | 4(7) mM/L | 5 | 8 | 5(8) mM/L | 3(5) mM/L | 5(7) mM/L | 5(7) mM/L | 5 | 5(7) mM/L | 4(6) mM/L | –
3 | O=S(=O)([O-])[O-].[Cu+2] [Cu(II), Copper sulphate] | resistant | 1 | 3 mM/L | 3(4) mM/L | 3(4) mM/L | 3 | 4 | 3 mM/L | 3(4) mM/L | 3(4) mM/L | 3 mM/L | 3 | 3(4) mM/L | 3 mM/L | –
4 | [Cl][Ni][Cl] [Ni(II), Nickel chloride] | – | 1 | – | – | – | 1 | 2 | – | – | – | – | 1 | – | – | MIC threshold values of heavy metals ([3]; strain 4P, 24 h): 1 mM/L; Susceptibility of the investigated strains to the heavy metal ([1]; compared with literature data for the model strain): semi-susceptible; MIC threshold values of heavy metals ([4]; strain 5N, 24 h): 1 mM/L; MIC threshold values of heavy metals ([5]; strain 6N, 24 h): 1 mM/L; MIC threshold values of heavy metals ([5]; strain 6N, 48 h): 2 mM/L; MIC threshold values of heavy metals ([7]; strain 1N, 24 h): 1 mM/L; MIC threshold values of heavy metals ([7]; strain 1N, 48 h): 2 mM/L; MIC threshold values of heavy metals ([8]; strain 3N, 24 h): 1 mM/L; MIC threshold values of heavy metals ([8]; strain 3N, 48 h): 2 mM/L; MIC threshold values of heavy metals ([9]; strain 2N, 24 h): 1 mM/L; MIC threshold values of heavy metals ([9]; strain 2N, 48 h): 2 mM/L; MIC threshold values of heavy metals ([10]; strain 5L, 24 h): 1 mM/L; MIC threshold values of heavy metals ([11]; 48 h): 2 mM/L; MIC threshold values of heavy metals ([12]; strain 6L, 24 h): 1 mM/L; MIC threshold values of heavy metals ([12]; strain 6L, 48 h): 2 mM/L; MIC threshold values of heavy metals ([13]; strain 2L, 24 h): 1 mM/L
